Values quoted from earlier work, collected in US20210154122A1, “TOPICAL COMPOSITION” (OTSUKA PHARMACEUTICAL CO., LTD., priority 2017, published 2021).

System: keratocytes
Conditions: keratocytes treated with uridine; disclosed in Patent Document 5 (JP 2009-517380 A)

Structure (SMILES): O=c1ccn([C@@H]2O[C@H](CO)[C@@H](O)[C@H]2O)c(=O)[nH]1 [uridine]
- hyaluronic acid production: promoted
